Legend:
Format in all cases: in vivo
Conditions in all cases: treatment dosage 320 g/ha
directly sown rice [1] = assay: Test Example 4: foliar treatment, effect on crop; b: directly sown rice
Procedure, shortened: (§1)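 Seeds are spot-sown into sterilized diluvial soil and covered with about 1.5 cm of soil. After 14 days' greenhouse growth at 25 to 30° C, plants are sprayed on stems and leaves with diluted emulsion at the stated g/ha rate, then scored at 3 weeks.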

fig-leafed goosefoot [2] = assay: Test Example 4: weedkilling efficacy by foliar treatment; M: fig-leafed goosefoot
Procedure, shortened: as §1

oval-leafed pondweed [3] = assay: Test Example 2: weedkilling efficacy, growth period weed treatment in the submerged state; C: oval-leafed pondweed
Procedure, shortened: (§2)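 Weeds treated at the 1-2 leaf stage by application of diluted emulsion onto floodwater (4 cm depth, alluvial soil) at specified g/ha. Grown in greenhouse at 25 to 30° C; herbicidal effect rated three weeks after treatment.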

birds-eye speedwell [4] = assay: Test Example 3: weedkilling efficacy through soil treatment; p: birds-eye speedwell
Procedure, shortened: (§3)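 Crop and weed responses were judged three weeks after a uniform surface spray of the water-diluted emulsion at the given g/ha rate. Seeds sat beneath about 1.5 cm of sterilized diluvial soil, and boxes stood in a greenhouse at 25 to 30° C.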

wild oat [5] = assay: Test Example 4: weedkilling efficacy by foliar treatment; G: wild oat
Procedure, shortened: as §1

barnyard grass [6] = assay: Test Example 3: weedkilling efficacy through soil treatment; F: barnyard grass
Procedure, shortened: as §3

transplanted rice = assay: Test Example 1: preemergent weed treatment in the submerged state, effect on crop; a: transplanted rice
Procedure, shortened: (§4)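 Pre-emergence application onto floodwater (4 cm, alluvial soil) on the day of sowing, dose expressed as g/ha from diluted emulsion formulation. Weeds sown with 2.5-leaf transplanted rice as crop; plants held at 25–30 °C in greenhouse and scored against assessment criteria after 3 weeks.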

Italian ryegrass [7] = assay: Test Example 3: weedkilling efficacy through soil treatment; I: Italian ryegrass
Procedure, shortened: as §3

Indian mallow [8] = assay: Test Example 3: weedkilling efficacy through soil treatment; K: Indian mallow
Procedure, shortened: as §3

crabgrass [9] = assay: Test Example 3: weedkilling efficacy through soil treatment; D: crabgrass
Procedure, shortened: as §3

redroot pigweed [10] = assay: Test Example 3: weedkilling efficacy through soil treatment; L: redroot pigweed
Procedure, shortened: as §3

soybean [11] = assay: Test Example 4: foliar treatment, effect on crop; d: soybean
Procedure, shortened: as §1

green foxtail [12] = assay: Test Example 3: weedkilling efficacy through soil treatment; E: green foxtail
Procedure, shortened: as §3

rapeseed [13] = assay: Test Example 3: soil treatment, effect on crop; g: rapeseed
Procedure, shortened: as §3

beet [14] = assay: Test Example 4: foliar treatment, effect on crop; f: beet
Procedure, shortened: as §1

corn [15] = assay: Test Example 3: soil treatment, effect on crop; c: corn
Procedure, shortened: as §3

beet [16] = assay: Test Example 3: soil treatment, effect on crop; f: beet
Procedure, shortened: as §3

barnyard grass [17] = assay: Test Example 2: weedkilling efficacy, growth period weed treatment in the submerged state; A: barnyard grass
Procedure, shortened: as §2

Indian mallow [18] = assay: Test Example 4: weedkilling efficacy by foliar treatment; K: Indian mallow
Procedure, shortened: as §1

bulrush [19] = assay: Test Example 1: weedkilling efficacy, preemergent weed treatment in the submerged state; B: bulrush
Procedure, shortened: as §4

wild oat [20] = assay: Test Example 3: weedkilling efficacy through soil treatment; G: wild oat
Procedure, shortened: as §3

common wind-grass [21] = assay: Test Example 3: weedkilling efficacy through soil treatment; J: common wind-grass
Procedure, shortened: as §3

redroot pigweed [22] = assay: Test Example 4: weedkilling efficacy by foliar treatment; L: redroot pigweed
Procedure, shortened: as §1

chickweed [23] = assay: Test Example 3: weedkilling efficacy through soil treatment; N: chickweed
Procedure, shortened: as §3

common wind-grass [24] = assay: Test Example 4: weedkilling efficacy by foliar treatment; J: common wind-grass
Procedure, shortened: as §1

corn [25] = assay: Test Example 4: foliar treatment, effect on crop; c: corn
Procedure, shortened: as §1

wheat [26] = assay: Test Example 4: foliar treatment, effect on crop; e: wheat
Procedure, shortened: as §1

black-grass [27] = assay: Test Example 3: weedkilling efficacy through soil treatment; H: black-grass
Procedure, shortened: as §3

directly sown rice [28] = assay: Test Example 3: soil treatment, effect on crop; b: directly sown rice
Procedure, shortened: as §3

birds-eye speedwell [29] = assay: Test Example 4: weedkilling efficacy by foliar treatment; p: birds-eye speedwell
Procedure, shortened: as §1

oval-leafed pondweed [30] = assay: Test Example 1: weedkilling efficacy, preemergent weed treatment in the submerged state; C: oval-leafed pondweed
Procedure, shortened: as §4

Italian ryegrass [31] = assay: Test Example 4: weedkilling efficacy by foliar treatment; I: Italian ryegrass
Procedure, shortened: as §1

catchweed = assay: Test Example 4: weedkilling efficacy by foliar treatment; O: catchweed
Procedure, shortened: as §1

black-grass [32] = assay: Test Example 4: weedkilling efficacy by foliar treatment; H: black-grass
Procedure, shortened: as §1

crabgrass [33] = assay: Test Example 4: weedkilling efficacy by foliar treatment; D: crabgrass
Procedure, shortened: as §1

green foxtail [34] = assay: Test Example 4: weedkilling efficacy by foliar treatment; E: green foxtail
Procedure, shortened: as §1

fig-leafed goosefoot [35] = assay: Test Example 3: weedkilling efficacy through soil treatment; M: fig-leafed goosefoot
Procedure, shortened: as §3

barnyard grass [36] = assay: Test Example 1: weedkilling efficacy, preemergent weed treatment in the submerged state; A: barnyard grass
Procedure, shortened: as §4

bulrush [37] = assay: Test Example 2: weedkilling efficacy, growth period weed treatment in the submerged state; B: bulrush
Procedure, shortened: as §2

chickweed [38] = assay: Test Example 4: weedkilling efficacy by foliar treatment; N: chickweed
Procedure, shortened: as §1

soybean [39] = assay: Test Example 3: soil treatment, effect on crop; d: soybean
Procedure, shortened: as §3

rapeseed [40] = assay: Test Example 4: foliar treatment, effect on crop; g: rapeseed
Procedure, shortened: as §1

wheat [41] = assay: Test Example 3: soil treatment, effect on crop; e: wheat
Procedure, shortened: as §3

barnyard grass [42] = assay: Test Example 4: weedkilling efficacy by foliar treatment; F: barnyard grass
Procedure, shortened: as §1

In the case of `COc1cc(C(F)(F)F)cc(NC(=O)C(C)(C)N2COC(C)=C(c3ccccc3)C2=O)n1` [B-2-49], the “b (directly sown rice) effect on crop grade” value (directly sown rice [1]) is reported as 0 (weed kill ratio 5% or less (practically no effect)), the “M (fig-leafed goosefoot) weedkilling efficacy grade” value (fig-leafed goosefoot [2]) is reported as 3 (weed kill ratio 40% or more, less than 70%) and the “C (oval-leafed pondweed) weedkilling efficacy grade” value (oval-leafed pondweed [3]) is reported as 5 (weed kill ratio 90% or more, (practically complete withering)). For the same molecule, the “P (birds-eye speedwell) weedkilling efficacy grade” value (birds-eye speedwell [4]) was 5 (weed kill ratio 90% or more, (practically complete withering)), the “G (wild oat) weedkilling efficacy grade” value (wild oat [5]) was 3 (weed kill ratio 40% or more, less than 70%) and the “F (barnyard grass) weedkilling efficacy grade” value (barnyard grass [6]) was 5 (weed kill ratio 90% or more, (practically complete withering)). The “a (transplanted rice) effect on crop grade” value (transplanted rice) was 3 (weed kill ratio 40% or more, less than 70%), the “I (Italian ryegrass) weedkilling efficacy grade” value (Italian ryegrass [7]) was 5 (weed kill ratio 90% or more, (practically complete withering)) and the “K (Indian mallow) weedkilling efficacy grade” value (Indian mallow [8]) was 1 (weed kill ratio 5% or more, less than 20%). The “D (crabgrass) weedkilling efficacy grade” value (crabgrass [9]) was 5 (weed kill ratio 90% or more, (practically complete withering)), the “L (redroot pigweed) weedkilling efficacy grade” value (redroot pigweed [10]) was 4 (weed kill ratio 70% or more, less than 90%) and the “d (soybean) effect on crop grade” value (soybean [11]) was 3 (weed kill ratio 40% or more, less than 70%). For the same molecule, the “E (green foxtail) weedkilling efficacy grade” value (green foxtail [12]) was 5 (weed kill ratio 90% or more, (practically complete withering)), the “g (rapeseed) effect on crop grade” value (rapeseed [13]) was 3 (weed kill ratio 40% or more, less than 70%) and the “f (beet) effect on crop grade” value (beet [14]) was 3 (weed kill ratio 40% or more, less than 70%). The “c (corn) effect on crop grade” value (corn [15]) was 0 (weed kill ratio 5% or less (practically no effect)), the “f (beet) effect on crop grade” value (beet [16]) was 3 (weed kill ratio 40% or more, less than 70%) and the “A (barnyard grass) weedkilling efficacy grade” value (barnyard grass [17]) was 5 (weed kill ratio 90% or more, (practically complete withering)). For the same molecule, the “K (Indian mallow) weedkilling efficacy grade” value (Indian mallow [18]) was 4 (weed kill ratio 70% or more, less than 90%), the “B (bulrush) weedkilling efficacy grade” value (bulrush [19]) was 5 (weed kill ratio 90% or more, (practically complete withering)) and the “G (wild oat) weedkilling efficacy grade” value (wild oat [20]) was 3 (weed kill ratio 40% or more, less than 70%). For the same molecule, the “J (common wind-grass) weedkilling efficacy grade” value (common wind-grass [21]) was 5 (weed kill ratio 90% or more, (practically complete withering)), the “L (redroot pigweed) weedkilling efficacy grade” value (redroot pigweed [22]) was 3 (weed kill ratio 40% or more, less than 70%) and the “N (chickweed) weedkilling efficacy grade” value (chickweed [23]) was 4 (weed kill ratio 70% or more, less than 90%). For the same molecule, the “J (common wind-grass) weedkilling efficacy grade” value (common wind-grass [24]) was 4 (weed kill ratio 70% or more, less than 90%), the “c (corn) effect on crop grade” value (corn [25]) was 3 (weed kill ratio 40% or more, less than 70%) and the “e (wheat) effect on crop grade” value (wheat [26]) was 0 (weed kill ratio 5% or less (practically no effect)). The “H (black-grass) weedkilling efficacy grade” value (black-grass [27]) was 5 (weed kill ratio 90% or more, (practically complete withering)), the “b (directly sown rice) effect on crop grade” value (directly sown rice [28]) was 3 (weed kill ratio 40% or more, less than 70%) and the “P (birds-eye speedwell) weedkilling efficacy grade” value (birds-eye speedwell [29]) was 4 (weed kill ratio 70% or more, less than 90%). The “C (oval-leafed pondweed) weedkilling efficacy grade” value (oval-leafed pondweed [30]) was 5 (weed kill ratio 90% or more, (practically complete withering)), the “I (Italian ryegrass) weedkilling efficacy grade” value (Italian ryegrass [31]) was 1 (weed kill ratio 5% or more, less than 20%) and the “O (catchweed) weedkilling efficacy grade” value (catchweed) was 3 (weed kill ratio 40% or more, less than 70%). The “H (black-grass) weedkilling efficacy grade” value (black-grass [32]) was 3 (weed kill ratio 40% or more, less than 70%), the “D (crabgrass) weedkilling efficacy grade” value (crabgrass [33]) was 5 (weed kill ratio 90% or more, (practically complete withering)) and the “E (green foxtail) weedkilling efficacy grade” value (green foxtail [34]) was 5 (weed kill ratio 90% or more, (practically complete withering)). For the same molecule, the “M (fig-leafed goosefoot) weedkilling efficacy grade” value (fig-leafed goosefoot [35]) was 3 (weed kill ratio 40% or more, less than 70%), the “A (barnyard grass) weedkilling efficacy grade” value (barnyard grass [36]) was 5 (weed kill ratio 90% or more, (practically complete withering)) and the “B (bulrush) weedkilling efficacy grade” value (bulrush [37]) was 5 (weed kill ratio 90% or more, (practically complete withering)). For the same molecule, the “N (chickweed) weedkilling efficacy grade” value (chickweed [38]) was 3 (weed kill ratio 40% or more, less than 70%), the “d (soybean) effect on crop grade” value (soybean [39]) was 0 (weed kill ratio 5% or less (practically no effect)) and the “g (rapeseed) effect on crop grade” value (rapeseed [40]) was 3 (weed kill ratio 40% or more, less than 70%). For the same molecule, the “e (wheat) effect on crop grade” value (wheat [41]) was 0 (weed kill ratio 5% or less (practically no effect)) and the “F (barnyard grass) weedkilling efficacy grade” value (barnyard grass [42]) was 4 (weed kill ratio 70% or more, less than 90%).

Reference: patent publication US9738634B2, “Heterocyclic amide compound and herbicide” (SYNGENTA PARTICIPATIONS AG, priority 2013, dated 2017)
